This note sets out measurements from ChEMBL document CHEMBL1125951, “Synthesis and dopaminergic activity of the enantiomers of 6-methyl-4,5a,6,7,8-hexahydrothiazolo[4,5-f]quinolin-2-amine (PD 128483)” (Bioorg Med Chem Lett, 1991).

As a reminder, the ED50 is the midpoint of the dose-response relation. For orientation: IC50 means the midpoint of a concentration-inhibition curve. A higher IC50 goes with lower potency. The term inhibition in vivo denotes the relative decrease from the control value, in per cent. A lower inhibition in vivo goes with a response near the control. One may read the Inhibition as how much of the control response was suppressed.

The structures appear in SMILES notation.

Test [1] relates to Rattus norvegicus. Nature of the test: Compound was evaluated for reversal of the increase in rat striatum DOPA accumulation produced by the pretreatment with GBL (750 mg/Kg, ip) and NSD 1015 (100 mg/Kg, ip). Type of test: functional.
The next test addresses D(1A) dopamine receptor (Rattus norvegicus, UniProt P18901). Nature of the test: In vitro binding affinity to Dopamine receptor D1 in rat striatal membranes using D1 antagonist [3H]SCH-23390. In kind it is cell membranes, Striatum, Membrane.
In test [2] the test system is Rattus norvegicus. Nature of the test: Compound was evaluated for inhibition of the spontaneous firing of substantia nigra DA neurons in anesthetized rats at 2.5 mg/Kg (ip). In kind it is functional.
The test system of test [3] is Rattus norvegicus. The test can be described thus: Compound (2.0 mg/kg ip.) was evaluated for reversal of the increase in rat striatum DOPA accumulation produced by the pretreatment with GBL (750 mg/Kg, ip) and NSD 1015 (2 mg/Kg, ip). Type of test: functional.
Test [4] deals with Rattus norvegicus. The test can be described thus: Compound was evaluated for inhibition of the spontaneous firing of substantia nigra DA neurons in anesthetized rats at 0.25 mg/Kg (ip). Type of test: functional.
Another test addresses D(2) dopamine receptor (Rattus norvegicus, UniProt P61169). The test can be described thus: In vitro binding affinity to Dopamine receptor D2 in rat striatal membranes using D2 antagonist [3H]spiperone. Type of test: cell membranes, Striatum, Membrane.
In test [5] the target is Dopamine receptors; D1 & D2 (Rattus norvegicus, UniProt P18901+P61169). Nature of the test: In vitro binding affinity to Dopamine receptor D1/Dopamine receptor D2 in rat striatal membranes using [3H]N-propylnorapomorphine. In kind it is cell membranes, Striatum, Membrane.
The subject of test [6] is Rattus norvegicus. The test can be described thus: Compound was evaluated for reversal of the increase in rat striatum DOPA accumulation produced by the pretreatment with GBL (750 mg/kg, ip) and NSD 1015 (100 mg/Kg, ip). In kind it is functional.

Chain of D(1A) dopamine receptor (P18901 whole entry): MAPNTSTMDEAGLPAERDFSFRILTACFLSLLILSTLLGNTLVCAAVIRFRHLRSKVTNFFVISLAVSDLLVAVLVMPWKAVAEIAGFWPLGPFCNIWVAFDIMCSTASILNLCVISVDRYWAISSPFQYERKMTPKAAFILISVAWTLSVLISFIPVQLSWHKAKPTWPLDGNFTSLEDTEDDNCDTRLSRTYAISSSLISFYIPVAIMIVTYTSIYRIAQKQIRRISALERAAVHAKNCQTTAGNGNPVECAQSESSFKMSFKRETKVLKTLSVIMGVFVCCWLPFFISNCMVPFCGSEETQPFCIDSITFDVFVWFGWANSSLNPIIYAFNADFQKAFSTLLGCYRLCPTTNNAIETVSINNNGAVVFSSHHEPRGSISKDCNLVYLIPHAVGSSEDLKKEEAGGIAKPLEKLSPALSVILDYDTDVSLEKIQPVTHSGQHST
Chain of D(2) dopamine receptor (P61169 whole entry): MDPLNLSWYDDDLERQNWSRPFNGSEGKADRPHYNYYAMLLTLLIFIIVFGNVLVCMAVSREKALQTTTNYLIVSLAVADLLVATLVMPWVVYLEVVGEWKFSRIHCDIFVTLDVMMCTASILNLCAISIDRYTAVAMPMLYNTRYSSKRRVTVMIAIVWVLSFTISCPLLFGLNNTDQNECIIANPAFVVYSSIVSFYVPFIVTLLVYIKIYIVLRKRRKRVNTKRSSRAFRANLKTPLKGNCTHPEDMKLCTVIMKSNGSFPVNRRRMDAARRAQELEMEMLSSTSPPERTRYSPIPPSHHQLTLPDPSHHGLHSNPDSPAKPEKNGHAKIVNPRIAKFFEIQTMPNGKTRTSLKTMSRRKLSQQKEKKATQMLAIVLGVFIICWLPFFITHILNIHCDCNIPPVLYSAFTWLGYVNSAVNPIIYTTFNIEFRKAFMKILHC

On to `CCCN1CCC=C2c3nc(N)sc3CC[C@H]21`, for which the ED50 in the test on Rattus norvegicus [1] was determined as 4.8 mg/kg. The same compound had an IC50 on D(1A) dopamine receptor greater than 15 µM. Moreover, the inhibition in vivo at 2.5 mg/kg in the test with Rattus norvegicus [2] is 91%.

As for `CCCN1CCC=C2c3nc(N)sc3CC[C@@H]21`, the ED50 in the test on Rattus norvegicus [1] is greater than 10 mg/kg. Also, the IC50 on D(1A) dopamine receptor was greater than 15 µM. The inhibition in vivo at 2.5 mg/kg with Rattus norvegicus [2] was 22%.

As to `CN1CCc2cccc3c2[C@H]1Cc1ccc(O)c(O)c1-3` [APOMORPHINE], the Inhibition in the test on Rattus norvegicus [3] turned out to be 100%. The compound further had an inhibition in vivo at 0.25 mg/kg in the test with Rattus norvegicus [4] of 100%.

In the case of `CN1CCC=C2c3nc(N)sc3CC[C@H]21`, the ED50 with Rattus norvegicus [1] is 0.5 mg/kg. The IC50 at D(2) dopamine receptor is 0.376 µM; at D(1A) dopamine receptor, greater than 20 µM; in test [5], 0.127 µM. Further, the inhibition in vivo at 2.5 mg/kg in the test with Rattus norvegicus [2] is 99%.

As to `CN1CCC=C2c3nc(N)sc3CC[C@@H]21`, in the test with Rattus norvegicus [6], the ED50 is greater than 10 mg/kg. For the same compound, the IC50 at D(2) dopamine receptor is 0.768 µM; at D(1A) dopamine receptor, greater than 20 µM; in test [5], 0.464 µM. In the test with Rattus norvegicus [2], this compound had an inhibition in vivo at 2.5 mg/kg of 67%.
